Experimental data: ChEMBL document CHEMBL2176875, “Ago-allosteric modulators of human glucagon-like peptide 2 receptor” (Bioorg Med Chem Lett, 2012)
One block for each compound: values may come before it. Calls of active or inactive are those of the source. The rule behind the calls is not given here.

Columns and labels:
[1] = molecular target: T1, Glucagon-like peptide 2 receptor (Homo sapiens) (UniProt O95838); assay: Positive ago-allosteric modulation of GLP2R overexpressed in human SE302 cells assessed as placental alkaline phosphatase activation at 25 uM measured on day 3 by Alamar Blue assay relative to 100 pM GLP2; format: cell-based
T1 sequence (whole entry): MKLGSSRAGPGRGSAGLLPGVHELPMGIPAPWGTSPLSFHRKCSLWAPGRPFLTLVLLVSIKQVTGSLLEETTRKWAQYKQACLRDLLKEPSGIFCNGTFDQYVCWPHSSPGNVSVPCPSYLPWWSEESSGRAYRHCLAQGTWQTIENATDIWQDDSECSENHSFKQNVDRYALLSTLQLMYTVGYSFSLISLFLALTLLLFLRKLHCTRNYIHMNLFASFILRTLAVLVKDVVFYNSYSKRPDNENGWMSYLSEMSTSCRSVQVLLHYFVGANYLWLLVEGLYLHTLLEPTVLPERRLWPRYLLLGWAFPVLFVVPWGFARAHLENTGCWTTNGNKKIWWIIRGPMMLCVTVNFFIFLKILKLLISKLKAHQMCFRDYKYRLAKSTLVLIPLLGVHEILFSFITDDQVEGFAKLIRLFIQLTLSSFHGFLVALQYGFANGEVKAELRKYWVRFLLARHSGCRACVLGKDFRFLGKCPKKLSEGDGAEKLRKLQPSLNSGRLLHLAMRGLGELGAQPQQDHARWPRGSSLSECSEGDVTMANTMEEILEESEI

[2] = molecular target: T1, Glucagon-like peptide 2 receptor (Homo sapiens); assay: Positive ago-allosteric modulation of GLP2R overexpressed in human SE302 cells assessed as placental alkaline phosphatase activation at 12.5 uM measured on day 3 by Alamar Blue assay relative to 100 pM GLP2; format: cell-based
[3] = molecular target: T1, Glucagon-like peptide 2 receptor (Homo sapiens); assay: (§1) Positive ago-allosteric modulation of GLP2R overexpressed in human SE302 cells assessed as placental alkaline phosphatase activation measured on day 3 by Alamar Blue assay; format: cell-based
[4] = molecular target: T1, Glucagon-like peptide 2 receptor (Homo sapiens); assay: Positive ago-allosteric modulation of GLP2R overexpressed in human SE302 cells assessed as GLP2 (3 to 33)-induced placental alkaline phosphatase activation at 10 uM measured on day 3 by Alamar Blue assay relative to GLP2; format: cell-based
[5] = molecular target: T1, Glucagon-like peptide 2 receptor (Homo sapiens); assay: Positive ago-allosteric modulation of GLP2R overexpressed in human SE302 cells assessed as increase in GLP2 (11 to 33)-induced placental alkaline phosphatase activation at 10 uM measured on day 3 by Alamar Blue assay relative to GLP2; format: cell-based
[6] = molecular target: T1, Glucagon-like peptide 2 receptor (Homo sapiens); assay: Positive ago-allosteric modulation of GLP2R overexpressed in human SE302 cells assessed as placental alkaline phosphatase activation at 50 uM measured on day 3 by Alamar Blue assay relative to 100 pM GLP2; format: cell-based
[7] = molecular target: T1, Glucagon-like peptide 2 receptor (Homo sapiens); assay: Positive ago-allosteric modulation of GLP2R overexpressed in human SE302 cells assessed as placental alkaline phosphatase activation at 50 uM measured on day 3 by Alamar Blue assay relative to 10 pM GLP2; format: cell-based
[8] = molecular target: T1, Glucagon-like peptide 2 receptor (Homo sapiens); assay: Positive ago-allosteric modulation of GLP2R overexpressed in human SE302 cells assessed as placental alkaline phosphatase activation at 25 uM measured on day 3 by Alamar Blue assay relative to 10 pM GLP2; format: cell-based
[9] = molecular target: T1, Glucagon-like peptide 2 receptor (Homo sapiens); assay: Positive ago-allosteric modulation of GLP2R overexpressed in human SE302 cells assessed as placental alkaline phosphatase activation at 6.3 uM measured on day 3 by Alamar Blue assay relative to 100 pM GLP2; format: cell-based
[10] = molecular target: T1, Glucagon-like peptide 2 receptor (Homo sapiens); assay: Positive ago-allosteric modulation of GLP2R overexpressed in human SE302 cells assessed as placental alkaline phosphatase activation at 6.3 uM measured on day 3 by Alamar Blue assay relative to 10 pM GLP2; format: cell-based
[11] = molecular target: T2, Glucagon-like peptide 2 receptor (Homo sapiens, UniProt O95838); assay: as §1; format: cell-based
T2 sequence (O95838 whole entry): T1 sequence (whole entry)

[12] = molecular target: T1, Glucagon-like peptide 2 receptor (Homo sapiens); assay: Positive ago-allosteric modulation of GLP2R overexpressed in human SE302 cells assessed as placental alkaline phosphatase activation measured on day 3 by Alamar Blue assay relative to GLP2; format: cell-based
[13] = molecular target: T1, Glucagon-like peptide 2 receptor (Homo sapiens); assay: Displacement of [125I]-Bolton Hunter labeled GLP2 from GLP-2R overexpressed in human SE302 cell membranes up to 100 uM after 2 hrs by gamma counter
[14] = molecular target: T1, Glucagon-like peptide 2 receptor (Homo sapiens); assay: Displacement of [125I]-Bolton Hunter labeled GLP2 from GLP2R overexpressed in human SE302 cell membranes at 10 uM after 2 hrs by gamma counter
[15] = molecular target: T1, Glucagon-like peptide 2 receptor (Homo sapiens); assay: Displacement of [125I]-Bolton Hunter labeled GLP2 from GLP2R overexpressed in human SE302 cell membranes at 1 uM after 2 hrs by gamma counter
[16] = molecular target: T1, Glucagon-like peptide 2 receptor (Homo sapiens); assay: Positive ago-allosteric modulation of GLP2R overexpressed in human SE302 cells assessed as reduction of GLP2-induced cAMP level at 3 to 10 uM after 30 mins; format: functional, cell-based
[17] = molecular target: T1, Glucagon-like peptide 2 receptor (Homo sapiens); assay: Positive ago-allosteric modulation of GLP2R overexpressed in human SE302 cells assessed as increase in (Z)-methyl 2-(2-(2,5-dichlorothiophen-3-yl)-2-(hydroxyimino)ethylthio)benzoate-induced placental alkaline phosphatase activation measured on day 3 by Alamar Blue assay; format: cell-based

Compound: COc1c(C(=O)O)cc(/C(CSc2ccccc2)=N/O)cc1C(C)(C)C
Activity [3]: inactive

Compound: O/N=C(\CSc1ccccc1Cl)c1cc(Cl)sc1Cl
%max [1]: 60%

Compound: COc1cccc(/C(CSc2ccccc2)=N/O)c1
%max [1]: 8%

Compound: O/N=C(\CSc1ccncc1-c1ccccc1)c1cc(Cl)sc1Cl
%max [2]: 102%

Compound: O/N=C(\CSc1ccccc1F)c1cc(Cl)sc1Cl
%max [1]: 80%

Compound: O/N=C(\CSc1ccccc1)c1cccc(Cl)c1
%max [8]: 46%

Compound: O/N=C(\CSc1ccc(C(F)(F)F)cc1)c1cc(Cl)sc1Cl
%max [1]: 16%

Compound: O/N=C(\CSc1cccc2ccccc12)c1cc(Cl)sc1Cl
%max [1]: 23%

Compound: COc1cccc(SC/C(=N\O)c2cc(Cl)sc2Cl)c1C
%max [1]: 31%

Compound: Cc1ccc(C)c(SC/C(=N\O)c2cc(Cl)sc2Cl)c1
%max [2]: 40%

Compound: COc1ccccc1SC/C(=N\O)c1cc(Cl)sc1Cl
Activity [3]: inactive
%max [7]: 78%

Compound: O/N=C(\CSc1ccc(F)cc1)c1cc(Cl)sc1Cl
%max [1]: 134%
%max [8]: 945%

Compound: O/N=C(\CSc1cccc(Cl)c1)c1cc(Cl)sc1Cl
%max [1]: 53%

Compound: O=C(O)c1ccccc1SC/C(=N\O)c1cc(Cl)sc1Cl
Activity [3]: inactive

Compound: CC(C)n1nc(C(F)(F)F)cc1/C(CSc1ccccc1)=N/O
%max [1]: 87%

Compound: CC(C)(C)c1cccc(/C(CSc2ccccc2)=N/O)c1
%max [1]: 18%
%max [8]: 244%

Compound: O/N=C(\CSc1ccccc1)c1cccc(Br)c1
%max [8]: 42%

Compound: O/N=C(\CSCCCc1ccccc1)c1cc(Cl)sc1Cl
Activity [3]: inactive

Compound: N#Cc1cccc(/C(CSc2ccccc2)=N/O)c1
%max [7]: 8%

Compound: O/N=C(\CSCc1ccccc1)c1cc(Cl)sc1Cl
Activity [3]: inactive

Compound: COc1c(C(=O)OC(C)(C)C)cc(/C(CSc2ccccc2)=N/O)cc1C(C)(C)C
%max [2]: 12%

Compound: Cn1nc(-c2ccccc2)cc1/C(CSc1ccccc1)=N/O
%max [1]: 14%

Compound: O/N=C(\CSc1ccccc1)c1cc(C(F)(F)F)nn1Cc1ccccc1
%max [2]: 59%

Compound: O/N=C(\CSc1ccncc1C(F)(F)F)c1cc(Cl)sc1Cl
%max [1]: 143%

Compound: CCc1cnccc1SC/C(=N\O)c1cc(Cl)sc1Cl
%max [1]: 59%

Compound: Cn1nc(C(C)(C)C)cc1/C(CSc1ccccc1)=N/O
Activity [3]: inactive

Compound: Cn1nc(C(F)(F)F)cc1/C(CSc1ccccc1)=N/O
Activity [3]: inactive
%max [1]: 13%

Compound: O/N=C(\CSc1cccs1)c1cc(Cl)sc1Cl
%max [1]: 40%

Compound: O/N=C(\CSc1ccccc1)c1cccc(O)c1
Activity [3]: inactive

Compound: H-DGSFSDEMNTILDNLAARDFINWLIQTKITD-OH [listing 1 of 2 here]
EC50 [11]: 31 nM

Compound: O/N=C(\CSc1ccccc1C(F)(F)F)c1cc(Cl)sc1Cl
%max [2]: 58%

Compound: CCCn1nc(C(F)(F)F)cc1/C(CSc1ccccc1)=N/O
%max [1]: 71%

Compound: CCC(C)n1nc(C(F)(F)F)cc1/C(CSc1ccccc1)=N/O (stereo not drawn)
%max [2]: 110%

Compound: CC(C)Oc1cccc(/C(CSc2ccccc2)=N/O)c1
%max [1]: 14%

Compound: O/N=C(\CSc1ccccc1)c1cc(C(F)(F)F)cc(C(F)(F)F)c1
%max [1]: 29%
%max [8]: 517%

Compound: O/N=C(\CSc1ccccc1C(F)(F)F)c1cc(C(F)(F)F)nn1C1CCCC1
%max [9]: 83%
%max [10]: 610%

Compound: Cc1ccccc1SC/C(=N\O)c1cc(Cl)sc1Cl
%max [1]: 90%

Compound: O/N=C(\CSc1ccccn1)c1cc(Cl)sc1Cl
Activity [3]: inactive

Compound: COC(=O)c1ccccc1SC/C(=N\O)c1cc(Cl)sc1Cl
%max [1]: 39%
%max [8]: 284%

Compound: COc1cccc(SC/C(=N\O)c2cc(Cl)sc2Cl)c1
Activity [3]: inactive
%max [8]: 144%

Compound: H-DGSFSDEMNTILDNLAARDFINWLIQTKITD-OH [listing 2 of 2 here]
%max [12]: 59%

Compound: O/N=C(\CSc1ccccc1)c1cccc(F)c1
%max [8]: 54%

The remaining lines, values ahead:

%max [1]: 30%
Compound: Cc1cccc(SC/C(=N\O)c2cc(Cl)sc2Cl)c1

%max [1]: 9%
Compound: CCCOc1cccc(/C(CSc2ccccc2)=N/O)c1

%max [1]: 54%
Compound: Cc1cccc(SC/C(=N\O)c2cc(Cl)sc2Cl)c1C

%max [1]: 124%
Compound: Cc1cc(F)ccc1SC/C(=N\O)c1cc(Cl)sc1Cl

%max [1]: 99%
Compound: O/N=C(\CSc1ccccc1)c1cc(C(F)(F)F)nn1C1CCC1

%max [2]: 84%
Compound: O/N=C(\CSc1ccccc1-c1ccccc1)c1cc(Cl)sc1Cl

Activity [3]: inactive
Compound: CC(C)(C)SC/C(=N\O)c1cc(Cl)sc1Cl

Activity [4]: Active
Activity [5]: Active
%max [1]: 31%
Compound: CC(C)(C)c1cc(/C(CSc2ccccc2)=N/O)cc(C(C)(C)C)c1

%max [6]: 44%
Compound: Cc1cnccc1SC/C(=N\O)c1cc(Cl)sc1Cl

%max [7]: 4%
Compound: O/N=C(\CSc1ccccc1)c1ccccc1

%max [6]: 27%
Compound: O/N=C(\CSc1cccnc1)c1cc(Cl)sc1Cl

%max [1]: 17%
%max [8]: 293%
Compound: O/N=C(\CSc1ccc(Cl)cc1)c1cc(Cl)sc1Cl

%max [1]: 4%
Compound: CC(C)(C)OC(=O)c1cc(/C(CSc2ccccc2)=N/O)cc(C(C)(C)C)c1O

%max [2]: 43%
Compound: COc1c(Br)cc(/C(CSc2ccccc2)=N/O)cc1C(C)(C)C

%max [2]: 40%
Compound: CC(C)(C)c1ccccc1SC/C(=N\O)c1cc(Cl)sc1Cl

Activity [3]: inactive
Compound: O/N=C(\CSC1CCCCC1)c1cc(Cl)sc1Cl

%max [9]: 97%
%max [10]: 714%
Compound: COc1c(Br)cc(/C(CSc2ccccc2C(F)(F)F)=N/O)cc1C(C)(C)C

%max [1]: 10%
Compound: Cc1cccc(C)c1SC/C(=N\O)c1cc(Cl)sc1Cl

Activity [3]: inactive
Compound: CCSC/C(=N\O)c1cc(Cl)sc1Cl

Activity [3]: inactive
Compound: Cc1cc(/C(CSc2ccccc2)=N/O)n(C)n1

%max [1]: 127%
Compound: O/N=C(\CSc1ccccc1)c1cc(C(F)(F)F)nn1C1CCCC1

%max [6]: 3%
%max [7]: 65%
Compound: Cc1ccc(SC/C(=N\O)c2cc(Cl)sc2Cl)cc1

%max [1]: 63%
Compound: CCc1ccccc1SC/C(=N\O)c1cc(Cl)sc1Cl

%max [2]: 58%
Compound: Cc1ccc(SC/C(=N\O)c2cc(Cl)sc2Cl)c(C)c1

%max [2]: 31%
Compound: CCC(CC)n1nc(C(F)(F)F)cc1/C(CSc1ccccc1)=N/O

Activity [3]: inactive
Compound: Cn1nc(C2CC2)cc1/C(CSc1ccccc1)=N/O

%max [8]: 95%
Compound: O/N=C(\CSc1ccccc1)c1cccc(C(F)(F)F)c1

%max [1]: 73%
Compound: O/N=C(\CSc1cccc(F)c1)c1cc(Cl)sc1Cl

%max [7]: 217%
Compound: COc1ccc(SC/C(=N\O)c2cc(Cl)sc2Cl)cc1

%max [2]: 43%
Compound: COc1c(N(C)C)cc(/C(CSc2ccccc2)=N/O)cc1C(C)(C)C

%max [6]: 55%
Activity [13]: inactive
Compound: O/N=C(\CSc1ccncc1)c1cc(Cl)sc1Cl

EC50 [11]: 1300 nM
%max [12]: 11%
Activity [14]: 100%
Activity [15]: 88%
Activity [16]: Dose-dependent effect
Activity [17]: Dose-dependent effect
Compound: H-NTILDNLAARDFINWLIQTKITD-OH
